Data published in publication PMC11233931, “Remodeling tumor‐associated macrophage for anti‐cancer effects by rational design of irreversible inhibition of mitogen‐activated protein kinase‐activated protein kinase 2” (MedComm, 2024).

Experiments:
Assay in all cases: Eurofins kinase selectivity profile against 380 other human recombinant kinases (Table S2)
Type in all cases: biochemical
[1] = biological target: T1, 380 human recombinant protein kinases (Homo sapiens, UniProt P29320); details: EphA3(h), read-out: Inhibition rate
T1 construct: purchased Eurofins (Celle Lévescault)
T1 sequence (P29320 21-983): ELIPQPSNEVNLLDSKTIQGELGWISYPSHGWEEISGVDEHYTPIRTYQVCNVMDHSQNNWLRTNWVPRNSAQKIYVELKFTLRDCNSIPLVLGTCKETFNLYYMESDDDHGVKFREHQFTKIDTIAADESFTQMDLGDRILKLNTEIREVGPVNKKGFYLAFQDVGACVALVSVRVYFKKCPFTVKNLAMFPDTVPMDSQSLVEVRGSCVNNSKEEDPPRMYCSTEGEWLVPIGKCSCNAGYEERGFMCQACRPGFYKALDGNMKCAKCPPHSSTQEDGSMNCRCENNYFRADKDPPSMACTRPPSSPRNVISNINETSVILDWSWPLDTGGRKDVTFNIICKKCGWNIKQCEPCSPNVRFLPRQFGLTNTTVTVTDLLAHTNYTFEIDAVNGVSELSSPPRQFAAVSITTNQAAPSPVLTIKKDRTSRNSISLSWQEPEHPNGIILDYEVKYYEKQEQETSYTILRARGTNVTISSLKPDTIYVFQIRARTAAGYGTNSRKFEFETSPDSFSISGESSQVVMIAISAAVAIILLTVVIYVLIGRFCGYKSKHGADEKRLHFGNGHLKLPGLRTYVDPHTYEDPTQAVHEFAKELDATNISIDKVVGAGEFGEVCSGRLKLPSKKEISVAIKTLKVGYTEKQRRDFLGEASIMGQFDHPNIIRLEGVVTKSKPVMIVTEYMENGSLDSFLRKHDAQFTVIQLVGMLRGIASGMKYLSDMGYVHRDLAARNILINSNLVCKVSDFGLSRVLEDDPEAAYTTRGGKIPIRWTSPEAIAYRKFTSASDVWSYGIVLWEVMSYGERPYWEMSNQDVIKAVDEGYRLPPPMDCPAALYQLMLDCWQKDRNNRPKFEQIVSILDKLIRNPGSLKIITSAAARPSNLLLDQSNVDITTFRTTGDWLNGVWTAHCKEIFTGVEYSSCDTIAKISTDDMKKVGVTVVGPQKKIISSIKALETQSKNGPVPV
Method in brief: (§1)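 Off-target profiling: one compound assayed by a commercial provider over 380 recombinant human protein kinases at various concentrations.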

[2] = biological target: T2, 380 human recombinant protein kinases (Homo sapiens, UniProt O75116); details: ROCK-II(h), read-out: Inhibition rate
T2 construct: purchased Eurofins (Celle Lévescault)
Method in brief: as §1

[3] = biological target: T3, 380 human recombinant protein kinases (Homo sapiens, UniProt Q9UQB9); details: Aurora-C(h), read-out: Inhibition rate
T3 construct: purchased Eurofins (Celle Lévescault)
T3 sequence (Q9UQB9 1-309): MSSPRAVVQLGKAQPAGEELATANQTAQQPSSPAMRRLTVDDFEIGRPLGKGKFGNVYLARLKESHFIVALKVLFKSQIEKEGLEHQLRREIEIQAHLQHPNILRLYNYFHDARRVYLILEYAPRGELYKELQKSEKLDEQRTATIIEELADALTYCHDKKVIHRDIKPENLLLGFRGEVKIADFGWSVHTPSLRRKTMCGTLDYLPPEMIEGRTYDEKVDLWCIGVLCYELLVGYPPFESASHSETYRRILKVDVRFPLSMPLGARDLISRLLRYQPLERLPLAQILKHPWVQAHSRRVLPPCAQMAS
Method in brief: as §1

[4] = biological target: T4, 380 human recombinant protein kinases (Homo sapiens, UniProt P49761); details: CLK3(h), read-out: Inhibition rate
T4 construct: purchased Eurofins (Celle Lévescault)
Method in brief: as §1

[5] = biological target: T5, 380 human recombinant protein kinases (Homo sapiens, UniProt Q15303); details: ErbB4(h), read-out: Inhibition rate
T5 construct: purchased Eurofins (Celle Lévescault)
Method in brief: as §1

[6] = biological target: T6, 380 human recombinant protein kinases (Homo sapiens, UniProt P80192); details: MLK1(h), read-out: Inhibition rate
T6 construct: purchased Eurofins (Celle Lévescault)
Method in brief: as §1

[7] = biological target: T7, 380 human recombinant protein kinases (Homo sapiens, UniProt O15111); details: IKKα(h), read-out: Inhibition rate
T7 construct: purchased Eurofins (Celle Lévescault)
T7 sequence (O15111 1-745): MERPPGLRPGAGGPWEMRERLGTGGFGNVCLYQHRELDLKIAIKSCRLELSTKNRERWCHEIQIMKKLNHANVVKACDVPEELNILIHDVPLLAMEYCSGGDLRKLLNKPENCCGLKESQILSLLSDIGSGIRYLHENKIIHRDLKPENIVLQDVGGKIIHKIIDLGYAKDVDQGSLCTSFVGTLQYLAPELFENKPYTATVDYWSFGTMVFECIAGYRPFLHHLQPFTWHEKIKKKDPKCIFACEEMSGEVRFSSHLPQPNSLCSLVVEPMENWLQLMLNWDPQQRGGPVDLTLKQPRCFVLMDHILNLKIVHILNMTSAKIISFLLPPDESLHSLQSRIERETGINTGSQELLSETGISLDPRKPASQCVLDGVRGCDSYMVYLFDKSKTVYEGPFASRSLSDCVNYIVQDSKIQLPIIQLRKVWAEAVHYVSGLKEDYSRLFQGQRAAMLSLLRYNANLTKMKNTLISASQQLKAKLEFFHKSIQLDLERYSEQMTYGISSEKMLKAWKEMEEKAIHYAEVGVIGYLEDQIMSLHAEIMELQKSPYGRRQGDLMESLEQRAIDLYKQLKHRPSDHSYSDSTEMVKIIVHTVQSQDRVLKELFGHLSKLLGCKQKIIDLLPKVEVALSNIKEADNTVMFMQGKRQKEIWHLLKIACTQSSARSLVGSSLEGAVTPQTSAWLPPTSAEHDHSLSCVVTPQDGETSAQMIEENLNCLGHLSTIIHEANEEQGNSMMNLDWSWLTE
Method in brief: as §1

T5 sequence (Q15303 26-1308): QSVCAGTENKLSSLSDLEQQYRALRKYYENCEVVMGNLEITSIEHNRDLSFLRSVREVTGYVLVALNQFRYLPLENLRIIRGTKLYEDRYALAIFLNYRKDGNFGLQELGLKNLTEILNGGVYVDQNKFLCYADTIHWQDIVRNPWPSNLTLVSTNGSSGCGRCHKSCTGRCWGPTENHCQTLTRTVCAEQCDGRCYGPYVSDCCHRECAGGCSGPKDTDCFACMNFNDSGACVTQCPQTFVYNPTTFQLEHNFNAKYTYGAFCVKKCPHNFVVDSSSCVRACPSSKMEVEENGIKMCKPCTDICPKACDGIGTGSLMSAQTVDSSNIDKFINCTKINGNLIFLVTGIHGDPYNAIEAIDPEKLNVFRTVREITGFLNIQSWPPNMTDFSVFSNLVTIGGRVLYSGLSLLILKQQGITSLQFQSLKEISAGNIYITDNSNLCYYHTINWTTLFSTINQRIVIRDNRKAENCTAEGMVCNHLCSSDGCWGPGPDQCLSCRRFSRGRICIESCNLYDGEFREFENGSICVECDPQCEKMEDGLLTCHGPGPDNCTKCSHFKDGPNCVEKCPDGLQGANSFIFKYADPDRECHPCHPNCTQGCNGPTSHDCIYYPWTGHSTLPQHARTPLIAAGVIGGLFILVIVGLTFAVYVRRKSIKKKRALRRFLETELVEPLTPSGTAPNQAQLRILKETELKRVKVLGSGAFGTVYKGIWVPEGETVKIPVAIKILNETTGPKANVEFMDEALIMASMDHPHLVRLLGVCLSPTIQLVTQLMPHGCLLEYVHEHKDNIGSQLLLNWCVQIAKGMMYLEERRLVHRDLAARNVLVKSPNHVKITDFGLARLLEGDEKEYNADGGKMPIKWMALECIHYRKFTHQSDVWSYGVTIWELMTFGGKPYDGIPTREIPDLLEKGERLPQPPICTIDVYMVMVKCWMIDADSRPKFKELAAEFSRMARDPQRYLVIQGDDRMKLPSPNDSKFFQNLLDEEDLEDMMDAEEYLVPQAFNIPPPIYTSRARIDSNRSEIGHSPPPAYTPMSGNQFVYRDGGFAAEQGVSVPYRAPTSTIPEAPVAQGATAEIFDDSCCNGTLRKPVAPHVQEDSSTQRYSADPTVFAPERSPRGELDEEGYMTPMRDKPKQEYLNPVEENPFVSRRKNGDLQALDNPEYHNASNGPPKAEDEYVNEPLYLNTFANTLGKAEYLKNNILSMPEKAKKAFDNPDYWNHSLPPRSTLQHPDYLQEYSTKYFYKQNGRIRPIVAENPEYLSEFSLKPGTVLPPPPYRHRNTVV
T4 sequence (P49761 whole entry): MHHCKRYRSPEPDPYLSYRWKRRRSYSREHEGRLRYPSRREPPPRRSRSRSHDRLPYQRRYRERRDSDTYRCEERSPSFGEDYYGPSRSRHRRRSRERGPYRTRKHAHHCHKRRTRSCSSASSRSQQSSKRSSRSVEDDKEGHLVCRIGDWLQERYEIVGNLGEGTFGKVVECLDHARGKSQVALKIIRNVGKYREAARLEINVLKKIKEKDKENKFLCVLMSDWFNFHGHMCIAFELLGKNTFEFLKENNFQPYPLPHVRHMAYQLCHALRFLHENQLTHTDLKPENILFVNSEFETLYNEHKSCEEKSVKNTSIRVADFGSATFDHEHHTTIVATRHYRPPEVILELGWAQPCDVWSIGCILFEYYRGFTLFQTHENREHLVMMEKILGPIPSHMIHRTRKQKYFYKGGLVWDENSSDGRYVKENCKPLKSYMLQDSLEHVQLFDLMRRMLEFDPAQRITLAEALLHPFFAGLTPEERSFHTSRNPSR
T6 sequence (P80192 whole entry): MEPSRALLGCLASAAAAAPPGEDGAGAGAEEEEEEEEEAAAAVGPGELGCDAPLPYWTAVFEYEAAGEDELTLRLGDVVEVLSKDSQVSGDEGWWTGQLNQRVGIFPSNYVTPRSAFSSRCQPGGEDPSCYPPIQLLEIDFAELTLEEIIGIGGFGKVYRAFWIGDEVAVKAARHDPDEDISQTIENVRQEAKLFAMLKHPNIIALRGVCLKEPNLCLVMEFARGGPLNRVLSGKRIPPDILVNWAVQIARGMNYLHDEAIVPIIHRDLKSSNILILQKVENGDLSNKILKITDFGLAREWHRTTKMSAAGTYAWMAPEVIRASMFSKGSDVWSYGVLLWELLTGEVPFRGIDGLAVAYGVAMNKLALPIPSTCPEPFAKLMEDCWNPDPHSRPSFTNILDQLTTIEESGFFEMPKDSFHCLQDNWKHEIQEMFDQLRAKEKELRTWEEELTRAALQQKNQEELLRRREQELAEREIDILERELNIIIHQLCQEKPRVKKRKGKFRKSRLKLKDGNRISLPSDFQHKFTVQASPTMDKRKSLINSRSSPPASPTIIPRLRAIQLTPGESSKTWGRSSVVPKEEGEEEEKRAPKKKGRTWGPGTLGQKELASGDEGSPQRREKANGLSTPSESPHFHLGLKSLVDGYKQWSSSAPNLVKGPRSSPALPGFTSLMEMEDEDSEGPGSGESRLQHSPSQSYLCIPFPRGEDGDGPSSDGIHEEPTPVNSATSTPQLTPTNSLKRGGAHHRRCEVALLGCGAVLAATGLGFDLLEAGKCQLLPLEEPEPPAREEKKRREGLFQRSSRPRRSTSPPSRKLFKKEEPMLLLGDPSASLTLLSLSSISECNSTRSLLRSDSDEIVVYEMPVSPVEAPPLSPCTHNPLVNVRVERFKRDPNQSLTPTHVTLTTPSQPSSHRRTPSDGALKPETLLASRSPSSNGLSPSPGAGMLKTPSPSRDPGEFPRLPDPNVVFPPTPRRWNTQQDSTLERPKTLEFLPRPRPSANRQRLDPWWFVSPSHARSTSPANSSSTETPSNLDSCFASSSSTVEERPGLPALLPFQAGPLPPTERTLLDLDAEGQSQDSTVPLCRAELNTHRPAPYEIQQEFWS
T2 sequence (O75116 whole entry): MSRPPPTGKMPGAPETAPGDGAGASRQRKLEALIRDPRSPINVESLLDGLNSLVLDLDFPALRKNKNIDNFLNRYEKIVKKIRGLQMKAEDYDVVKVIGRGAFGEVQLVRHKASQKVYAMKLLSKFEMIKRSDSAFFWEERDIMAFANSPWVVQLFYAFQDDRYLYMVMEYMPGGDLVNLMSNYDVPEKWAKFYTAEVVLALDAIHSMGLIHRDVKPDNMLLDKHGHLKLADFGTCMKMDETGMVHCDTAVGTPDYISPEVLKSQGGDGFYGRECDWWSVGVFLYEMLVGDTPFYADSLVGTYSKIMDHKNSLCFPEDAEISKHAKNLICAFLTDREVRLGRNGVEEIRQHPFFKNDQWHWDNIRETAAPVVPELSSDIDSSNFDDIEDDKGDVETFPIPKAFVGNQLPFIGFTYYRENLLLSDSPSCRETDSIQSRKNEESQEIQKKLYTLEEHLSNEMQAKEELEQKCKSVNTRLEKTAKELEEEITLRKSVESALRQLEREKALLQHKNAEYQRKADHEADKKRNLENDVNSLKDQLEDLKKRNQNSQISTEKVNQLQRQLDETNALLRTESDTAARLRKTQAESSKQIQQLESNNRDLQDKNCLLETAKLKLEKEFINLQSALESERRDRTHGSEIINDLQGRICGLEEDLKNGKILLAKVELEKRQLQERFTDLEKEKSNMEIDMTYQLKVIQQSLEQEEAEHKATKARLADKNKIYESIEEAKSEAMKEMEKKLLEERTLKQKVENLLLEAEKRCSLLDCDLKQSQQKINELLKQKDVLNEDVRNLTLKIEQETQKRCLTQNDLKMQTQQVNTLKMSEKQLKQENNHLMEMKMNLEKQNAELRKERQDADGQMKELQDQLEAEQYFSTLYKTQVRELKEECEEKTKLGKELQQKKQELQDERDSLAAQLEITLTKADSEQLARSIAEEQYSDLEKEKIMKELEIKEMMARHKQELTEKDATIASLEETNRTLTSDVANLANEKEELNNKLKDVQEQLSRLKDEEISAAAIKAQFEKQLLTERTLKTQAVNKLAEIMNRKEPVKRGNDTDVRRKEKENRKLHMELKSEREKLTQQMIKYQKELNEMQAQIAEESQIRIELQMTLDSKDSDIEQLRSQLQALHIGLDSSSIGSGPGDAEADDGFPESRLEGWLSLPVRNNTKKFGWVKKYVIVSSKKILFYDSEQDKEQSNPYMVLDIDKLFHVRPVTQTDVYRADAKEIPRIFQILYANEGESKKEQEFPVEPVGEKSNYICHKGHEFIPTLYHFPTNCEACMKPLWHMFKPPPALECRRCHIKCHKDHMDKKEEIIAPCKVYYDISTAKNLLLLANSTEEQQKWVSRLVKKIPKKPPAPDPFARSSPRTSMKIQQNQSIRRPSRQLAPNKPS

C=CC(=O)Nc1cc(-c2cc(-c3cc4c([nH]3)CCNC4=O)ccn2)ccc1OC(F)(F)F [compound 11]
inhibition at 0.01 µM ([1]; 10 nM): 15% | inhibition at 0.1 µM ([1]; 100 nM): -1% | inhibition at 1 µM ([1]; 1000 nM): -10% | inhibition at 0.01 µM ([2]; 10 nM): -3% | inhibition at 0.1 µM ([2]; 100 nM): 0% | inhibition at 1 µM ([2]; 1000 nM): -6% | inhibition at 0.01 µM ([3]; 10 nM): 2% | inhibition at 0.1 µM ([3]; 100 nM): -5% | inhibition at 1 µM ([3]; 1000 nM): 6% | inhibition at 0.01 µM ([4]; 10 nM): -3% | inhibition at 0.1 µM ([4]; 100 nM): 3% | inhibition at 1 µM ([4]; 1000 nM): 10% | inhibition at 0.01 µM ([5]; 10 nM): -15% | inhibition at 0.1 µM ([5]; 100 nM): -3% | inhibition at 1 µM ([5]; 1000 nM): 6% | inhibition at 0.01 µM ([6]; 10 nM): -3% | inhibition at 0.1 µM ([6]; 100 nM): 0% | inhibition at 1 µM ([6]; 1000 nM): 10% | inhibition at 0.01 µM ([7]; 10 nM): -15% | inhibition at 0.1 µM ([7]; 100 nM): -14% | inhibition at 1 µM ([7]; 1000 nM): -5%
